Data taken from US6720341B2, “Preventives/remedies for kidney diseases” (Mitsubishi Pharma Corporation, priority 2000, dated 2004).

Tested on: renal interstitial fibrosis model mice
Experiment: Action in renal interstitial fibrosis model mice due to unilateral ureteral ligation
Assay type: in vivo
Description: Unilateral ureteral ligation mice were prepared according to the reported method (Kidney Int. 54, 110-119, (1998)). Male BL6/C3H F1 mice (6-week-old, body weight 25 g-30 g) were anesthetized with pentobarbital and subjected to median incision. Thereafter, left ureter was detached and ligated at two points with silk thread. Two models were prepared, and 10 mg/kg of Y-27632 was orally administered (administration with drinking water) to one group for consecutive days from 2 days prior to the operation. Ten days postoperation, the kidney on the ureter ligation side was removed, fixed with 4% paraformaldehyde and prepared into specimen, for staining, which were subjected to Masson trichrome staining. The level of renal interstitial fibrosis was calculated by image analysis of the area ratio (interstitium cortex area ratio:%) of the portion stained blue (fibrosis) relative to the entire sight. (Results)

SMILES: C[C@@H](N)[C@H]1CC[C@H](C(=O)Nc2ccncc2)CC1 [Compound Y-27632, (+)-trans-4-(1-aminoethyl)-1-(4-pyridylcarbamoyl)cyclohexane 2HCl.1H2O]
- level of renal interstitial fibrosis (10 mg/kg orally, against non-administration group, p < 0.01 (t-test)): significantly suppressed
- portion stained blue (fibrosis) in Masson trichrome stained kidney specimen (FIG. 1B, Y-27632 administration group, 10 mg/kg orally, ten days postoperation): scarcely detected
- Area ratio of interstitium cortex (Fibrosis): % (average value ± SD) (unilateral ureteral ligation mice, 10 mg/kg orally (with drinking water) from 2 days prior to operation, kidney removed ten days postoperation, Masson trichrome staining, image analysis, n = 4): 7.31 ± 3.11 %
